Values quoted from earlier work, collected in patent publication US7393545B2, “Lipstatin derivative—soluble fiber tablets” (priority 1999, dated 2008).

Key:
[1] = in vivo
pancreatic lipase = target: T1, pancreatic lipase (Homo sapiens, UniProt P16233)
T1 sequence (P16233 17-465): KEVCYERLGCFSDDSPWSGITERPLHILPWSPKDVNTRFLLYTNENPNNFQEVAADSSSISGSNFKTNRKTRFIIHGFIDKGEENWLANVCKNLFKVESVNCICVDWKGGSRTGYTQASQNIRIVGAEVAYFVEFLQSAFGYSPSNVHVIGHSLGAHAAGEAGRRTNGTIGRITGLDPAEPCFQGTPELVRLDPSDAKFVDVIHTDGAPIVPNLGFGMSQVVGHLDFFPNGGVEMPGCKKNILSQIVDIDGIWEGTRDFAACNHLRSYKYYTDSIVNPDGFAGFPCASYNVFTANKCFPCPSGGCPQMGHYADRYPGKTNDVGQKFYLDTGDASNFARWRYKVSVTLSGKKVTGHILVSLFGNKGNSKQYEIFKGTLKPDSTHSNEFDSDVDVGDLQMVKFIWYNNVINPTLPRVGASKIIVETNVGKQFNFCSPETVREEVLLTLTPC

[2] = diet-induced obese rats, 27 mg/kg/day
[3] = first year of a 2 year study, 228 patients, 3× daily, mildly hypocaloric diet
[4] = placebo-controlled clinical studies, over 5000 obese patients

For `CCCCCCCCCCC[C@@H](C[C@@H]1OC(=O)[C@H]1CCCCCC)OC(=O)[C@H](CC(C)C)NC=O` [Orlistat, tetrahydrolipostatin], the “fat contained in food whose absorption is prevented” value [1] is given as “about one third”, the “more weight lost than the placebo controlled group” value [3] is given as 65% and the “share of patients having lost >10% of their bodyweight” value [3] is given as “⅓”. The “patients who lost 10% or more body weight compared to placebo and diet alone” value (first year of a two year study, moderately reduced calorie diet) was 3 times, the adverse side-effects [4] was “no major adverse side-effects” and the weight loss [4] was “significant weight loss”. The “inhibition of pancreatic lipase” value (pancreatic lipase) was “potent and selective inhibitor”, the “decrease in carcass fat” value [2] was 54 g and the “decrease in liver weight” value [2] was 13%. For the same compound, the “increase in large intestine weight” value [2] was 38%, the “increase in small intestine weight” value [2] was 27% and the “loss of body weight” value [2] was 65 g. The “retroperitoneal (RP) pad weight” value [2] was “decreases” and the fat absorption ([2]; decreased from 93-94%) was 17-19%.
